From patent US8283474B2, “Azabicyclo (3.1.0) hexane derivatives useful as modulators of dopamine D3 receptors” (Glaxo Group Limited, priority 2004, dated 2012)

Each molecule was assayed against T1, dopamine D3 receptor (Homo sapiens, UniProt P35462) (assay: GTPγS scintillation proximity assay (GTPγS-SPA), antagonist format, CHO_D3 membranes). Conditions: difference in functional pKi at D3 versus the opposite enantiomer of the same Example.
T1 construct: expressed in transfected cells; membrane preparation
Type: biochemical
Protocol: Functional potency and intrinsic activity of compounds of this invention can be measured by the following GTPγS scintillation proximity assay (GTPγS-SPA). Cells used in the study are Chinese Hamster Ovary (CHO) Cells.
Cell membranes are prepared as follows. Cell pellets are resuspended in 10 volumes of 50 mM HEPES, 1 mM EDTA pH 7.4, using KOH. On the day the following proteases are added to the buffer just prior to giving the homogenisation buffer. 10^−6M Leupeptin(Sigma L2884)−5000×stock=5 mg/ml in buffer 25 ug/ml Bacitracin(Sigma B0125)−1000×stock=25 mg/ml in buffer 1 mM PMSF−1000×stock=17 mg/ml in 100% ethanol 2×10^−6M Pepstain A−1000×stock=2 mM in 100% DMSO
The cells are homogenised by 2×15 second bursts in a 1 litre Glass Waring blender in a class two biohazard cabinet. The resulting suspension is spun at 500 g for 20 mins (Beckman T21 centrifuge: 1550 rpm). The supernatant is withdrawn with a 25 ml pipette, aliquotted into pre-chilled centrifuge tubes and spun at 48,000 g to pellet membrane fragments (Beckman T1270: 23,000 rpm for 30 mins). The final 48,000 g pellet is resuspended in Homogenisation Buffer, (4× the volume of the original cell pellet). The 48,000 g pellet is resuspended by vortexing for 5 seconds and homogenized in a dounce homogenizer 10-15 stokes. The prep is distributed into appropriate sized aliquots, (200-1000 ul), in polypropylene tubes and store at −80° C. Protein content in the membrane preparations is evaluated with the Bradford protein assay.
The final top concentration of test drug is 3 uM in the assay and 11 points serial dilution curves 1:4 in 100% DMSO are carried out using a Biomek FX. The test drug at 1% total assay volume (TAV) is added to a solid, white, 384 well assay plate. 50% TAV of precoupled (for 90 mins at 4° C.) membranes, 5 μg/well, and Wheatgerm Agglutinin Polystyrene Scintillation Proximity Assay beads (RPNQ0260, Amersham), 0.25 mg/well, in 20 mM HEPES pH 7.4, 100 mM NaCl, 10 mM MgCl2, 60 μg/ml saponin and 30 μM GDP is added. The third addition was a 20% TAV addition of either buffer, (agonist format) or EC80 final assay concentration of agonist, Quinelorane, prepared in assay buffer (antagonist format). The assay was started by the addition of 29% TAV of GTPγ[^35S] 0.38 nM final (37 MBq/ml, 1160 Ci/mmol, Amersham). After all additions assay plates are spun down for 1 min at 1,000 rpm. Assay plates are counted on a Viewlux, 613/55 filter, for 5 min., between 2-6 hours after the final addition.
The effect of the test drug over the basal generates EC50 value by an iterative least squares curve fitting programme, expressed in the table as pEC50 (i.e. −log EC50). The ratio between the maximal effect of the test drug and the maximal effect of full agonist, Quinelorane, generates the Intrinsic Activity (IA) value (i.e. IA=1 full agonist, IA<1 partial agonist). fpKi values of test drug are calculated from the IC50 generated by “antagonist format” experiment, using Cheng & Prusoff equation: fKi=IC50/1+([A]/EC50) where: [A] is the concentration of the agonist […] in the assay and EC50 is the 5-HT EC50 value obtained in the same experiment. fpKi is defined as −log fKi.

T1 sequence (P35462 whole entry): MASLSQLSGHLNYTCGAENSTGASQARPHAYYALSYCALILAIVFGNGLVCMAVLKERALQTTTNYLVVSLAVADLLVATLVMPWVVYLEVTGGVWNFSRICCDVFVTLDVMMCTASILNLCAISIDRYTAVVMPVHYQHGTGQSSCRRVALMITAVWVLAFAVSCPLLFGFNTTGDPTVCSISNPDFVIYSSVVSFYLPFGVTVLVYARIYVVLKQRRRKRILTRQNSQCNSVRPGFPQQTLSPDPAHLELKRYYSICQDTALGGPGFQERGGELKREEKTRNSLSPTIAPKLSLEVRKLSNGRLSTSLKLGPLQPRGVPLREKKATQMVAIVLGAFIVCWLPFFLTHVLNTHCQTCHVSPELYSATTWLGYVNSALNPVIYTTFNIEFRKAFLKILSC

Row | SMILES | fpKi (D3) higher than the other Enantiomer [log-unit]
1 | Cc1ncoc1-c1nnc(SCCCN2C[C@@H]3C[C@]3(c3ccc(OC(F)(F)F)cc3)C2)n1C (single isomer, unassigned) [Example 30 Enantiomer 1] | > 1
2 | Cc1ncoc1-c1nnc(SCCCN2C[C@@H]3C[C@]3(c3cccc(F)c3)C2)n1C (single isomer, unassigned) [Example 23 Enantiomer 1] | > 1
3 | Cc1ncoc1-c1nnc(SCCCN2C[C@@H]3C[C@]3(c3ccc(C(F)(F)F)cc3F)C2)n1C.Cl (single isomer, unassigned) [Example 16 Enantiomer 2] | > 1
4 | Cc1ncoc1-c1nnc(SCCCN2C[C@@H]3C[C@]3(c3ccc(F)cc3)C2)n1C (single isomer, unassigned) [Example 21 Enantiomer 1] | > 1
5 | Cc1ncoc1-c1nnc(SCCCN2C[C@@H]3C[C@]3(c3cc(F)cc(C(F)(F)F)c3)C2)n1C (single isomer, unassigned; enantiomer 1) [Example 110 Enantiomer 1] | > 1
6 | Cc1ncoc1-c1nnc(SCCCN2C[C@]3(C)C[C@@]3(c3cccc(Cl)c3)C2)n1C (single isomer, unassigned) [Example 22 Enantiomer 1] | > 1
7 | Cc1ncoc1-c1nnc(SCCCN2C[C@@H]3C[C@]3(c3ccc(Cl)cc3)C2)n1C (single isomer, unassigned) [Example 20 Enantiomer 1] | > 1
8 | Cc1ncoc1-c1nnc(SCCCN2C[C@@H]3C[C@]3(c3ccc(Br)cc3)C2)n1C (single isomer, unassigned) [Example 9 Enantiomer 1] | > 1
9 | Cc1ccc2c(-c3nnc(SCCCN4CC5CC5(c5ccc(Cl)cc5)C4)n3C)cccc2n1 (single isomer, unassigned; enantiomer 1) [Example 29 Enantiomer 1] | > 1
10 | Cc1ccc2c(-c3nnc(SCCCN4C[C@@H]5C[C@]5(c5ccccc5)C4)n3C)cccc2n1 (single isomer, unassigned) [Example 3 Enantiomer 2] | > 1
11 | Cc1ncoc1-c1nnc(SCCCN2C[C@@H]3C[C@]3(c3cccc(C(F)(F)F)c3F)C2)n1C (single isomer, unassigned; enantiomer 2) [Example 111 Enantiomer 2] | > 1

The next lines start with the values.

Row | fpKi (D3) higher than the other Enantiomer [log-unit] | SMILES
12 | > 1 | COc1ccc([C@]23C[C@H]2CN(CCCSc2nnc(-c4cccc5nc(C)ccc45)n2C)C3)cc1 (single isomer, unassigned) [Example 1 Enantiomer 1]
13 | > 0.6 | Cc1ccc2c(-c3nnc(SCCCN4C[C@@H]5C[C@]5(c5ccc(Cl)c(Cl)c5)C4)n3C)cccc2n1 (single isomer, unassigned) [Example 4 Enantiomer 1]
14 | > 1 | Cc1nc2cc([C@]34C[C@H]3CN(CCCSc3nnc(-c5ocnc5C)n3C)C4)ccc2s1 (single isomer, unassigned) [Example 72 Enantiomer 1]
15 | > 1 | COc1cccc([C@]23C[C@H]2CN(CCCSc2nnc(-c4ocnc4C)n2C)C3)c1 (single isomer, unassigned) [Example 24 Enantiomer 1]
16 | > 1 | Cc1ncoc1-c1nnc(SCCCN2C[C@@H]3C[C@]3(c3ccc4c(cnn4C)c3)C2)n1C (single isomer, unassigned) [Example 74 Enantiomer 1]
17 | > 1 | CCC(=O)c1cc([C@]23C[C@H]2CN(CCCSc2nnc(-c4ocnc4C)n2C)C3)ccc1OC (single isomer, unassigned) [Example 71 Enantiomer 1]
18 | > 1 | Cc1ncoc1-c1nnc(SCCCN2C[C@@H]3C[C@]3(c3cc(C(F)(F)F)ccc3F)C2)n1C (single isomer, unassigned) [Example 36 Enantiomer 2]
19 | > 1 | COc1ccc([C@]23C[C@H]2CN(CCCSc2nnc(-c4ocnc4C)n2C)C3)cc1C(C)=O (single isomer, unassigned) [Example 19 Enantiomer 1]
20 | > 0.9 | Cc1ccc2c(-c3nnc(SCCCN4C[C@@H]5C[C@]5(c5ccc(C(C)(C)C)cc5)C4)n3C)cccc2n1 (single isomer, unassigned) [Example 5 Enantiomer 2]
21 | > 1 | Cc1ccc2c(-c3nnc(SCCCN4C[C@@H]5C[C@]5(c5ccc(Br)cc5)C4)n3C)cccc2n1 (single isomer, unassigned) [Example 2 Enantiomer 2]
22 | > 1 | Cc1ncoc1-c1nnc(SCCCN2C[C@@H]3C[C@]3(c3cccc(C(F)(F)F)c3)C2)n1C (single isomer, unassigned) [Example 17 Enantiomer 1]
23 | > 1 | Cc1ncoc1-c1nnc(SCCCN2C[C@@H]3C[C@]3(c3ccc(C(F)(F)F)cn3)C2)n1C (single isomer, unassigned) [Example 96 Enantiomer 2]
